Measured values taken from patent US20100248223A1, “ASSESSING OUTCOMES FOR BREAST CANCER PATIENTS” (MAYO FOUNDATION FOR MEDICAL EDUCATION AND RESEARCH, priority 2006, published 2010).
Like-named read-outs stand apart in the source and are kept apart here.

Tests used:
[1] = biological target: CYP2D6 enzyme system (Homo sapiens, UniProt P10635); settings: classification from cited literature; cited from earlier work
[2] = test system: resected ER positive breast cancer; settings: for 9 year RFS rate / 5-year DFS: node negative
From the text: Patients. […] Postmenopausal women with node-negative disease were required to have stage T1c or T2N0M0 cancer and could be any age, whereas women with node-positive disease were required to be at least 65 years of age with a tumor stage T1 (any N) or T2N1M0. […] Patients were surgically treated with either a modified radical mastectomy or breast conservative therapy including lumpectomy, axillary nodal dissection, and radiation therapy. The axillary dissection must have involved at least levels I and II and the examination of at least 6 axillary nodes. […] Postlumpectomy radiation therapy consisted of a total cumulative breast dose of 5040 cGy in 28 fractions, and those with axillary nodal involvement also received radiation to the axilla and supraclavicular regions. Patients were classified as ER positive if resected breast tissue contained ≧10 fmol of ER polypeptide/mg cytosol protein or was positive for ER polypeptide by an immunohistochemical assay. All patients were randomized within 6 weeks of definitive surgery.
Patients were stratified based on axillary lymph node status (0, 1-3, 4-9 vs. 10 or more), age (<65 years vs. >65), primary tumor size (<3 cm vs. >3 cm), ER status (10-49 fmol vs. 50 fmol or greater vs. positive by immunohistochemical assay), and extent of surgery (mastectomy vs. breast conservation therapy).
Study Design and End Points. One objective of this study was to examine the relationship between the HOXB13:IL-17BR expression ratio and clinical outcomes of relapse-free survival, disease-free survival, and overall survival. Relapse-free survival (RFS) was defined as the time from randomization to documentation of the first of the following events: any recurrence (local, regional or distant) of breast cancer, a contralateral breast cancer or death. When estimating the distribution of RFS, patients who developed a non-breast second primary cancer (other than squamous or basal cell carcinoma of the skin, carcinoma in situ of the cervix, or lobular carcinoma in situ of the breast) prior to the diagnosis of a breast event were censored on the day their second primary was diagnosed. Patients who were alive without a breast recurrence, contralateral breast cancer or a second non-breast primary cancer were censored at the date of their last disease evaluation. Disease-free survival (DFS) was defined as the time from randomization to documentation of the first of the following events: any recurrence (local, regional or distant) of breast cancer, a contralateral breast cancer, a second primary cancer, or death due to any cause. Patients who were alive without any of these events were censored at the date of their last disease evaluation. Overall survival (OS) was estimated as the time from registration to death due to any cause.
Relapse-free (RF) time was defined as the time from randomization to documentation of a breast event where a breast event is any recurrence (local, regional, or distant) of breast cancer or the documentation of contralateral breast cancer (including ductal carcinoma in situ). When estimating the distribution of RF time, patients who developed a non-breast second primary cancer (other than squamous or basal cell carcinoma of the skin, carcinoma in situ of the cervix, or lobular carcinoma in situ of the breast) prior to the diagnosis of a breast event were censored on the day their second primary was diagnosed. Patients (alive or dead) without a breast recurrence, contralateral breast cancer or a second non-breast primary cancer were censored at the date of their last disease evaluation.
Disease-free survival (DFS) was defined as the time from randomization to documentation of the first of the following events: any recurrence (local, regional or distant) of breast cancer, the documentation of contralateral breast cancer, or death due to any cause.

[3] = patients with gene expression data (n=206), oral tamoxifen 20 mg daily for 5 years

Chain of CYP2D6 enzyme system (P10635 whole entry): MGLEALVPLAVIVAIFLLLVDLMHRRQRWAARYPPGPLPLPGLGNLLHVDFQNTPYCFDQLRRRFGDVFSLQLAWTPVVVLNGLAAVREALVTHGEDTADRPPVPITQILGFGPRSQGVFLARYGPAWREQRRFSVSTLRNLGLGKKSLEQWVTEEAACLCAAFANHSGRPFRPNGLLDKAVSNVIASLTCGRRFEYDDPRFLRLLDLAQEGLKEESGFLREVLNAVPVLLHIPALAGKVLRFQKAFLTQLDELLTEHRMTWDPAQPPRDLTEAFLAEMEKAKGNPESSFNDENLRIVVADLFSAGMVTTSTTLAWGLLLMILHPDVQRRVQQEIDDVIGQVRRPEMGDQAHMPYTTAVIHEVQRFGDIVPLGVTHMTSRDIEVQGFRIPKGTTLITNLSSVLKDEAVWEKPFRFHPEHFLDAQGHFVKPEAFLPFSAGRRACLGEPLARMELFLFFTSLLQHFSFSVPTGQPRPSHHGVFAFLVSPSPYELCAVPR

Fc1ccc([C@@H]2CCNC[C@H]2COc2ccc3c(c2)OCO3)cc1 [paroxetine]
strength of inhibition of the CYP2D6 enzyme system [1]: potent

CN/C(=N/CCSCc1nc[nH]c1C)NC#N [cimetidine]
strength of inhibition of the CYP2D6 enzyme system [1]: moderate

CN[C@H]1CC[C@@H](c2ccc(Cl)c(Cl)c2)c2ccccc21 [sertraline]
strength of inhibition of the CYP2D6 enzyme system [1]: moderate

O=C(CCCN1CCC(O)(c2ccc(Cl)cc2)CC1)c1ccc(F)cc1 [haloperidol]
strength of inhibition of the CYP2D6 enzyme system [1]: moderate

CN(C)CCC=C1c2ccccc2COc2ccccc21 [doxepin]
strength of inhibition of the CYP2D6 enzyme system [1]: moderate

CC/C(=C(\c1ccccc1)c1ccc(OCCN(C)C)cc1)c1ccccc1 [tamoxifen]
patients reporting mild (grade 1) hot flashes (223 patients): 40%
patients reporting moderate (grade 2) hot flashes (223 patients): 15%
patients reporting severe (grade 3) hot flashes (223 patients): 5%
% of patients who developed moderate or severe hot flashes (CYP2D6 (*4) *4/Wt genotype): 9/40 (23%)
% of patients who developed moderate or severe hot flashes (CYP2D6 (*4) Wt/Wt genotype): 27/137 (20%)
% of patients who developed moderate or severe hot flashes (CYP2D6 *4/WT or WT/WT genotypes (n=177)): 20%
% of patients who developed moderate or severe hot flashes (CYP3A5 (*3) A/A genotype): 1/6 (17%)
% of patients who developed moderate or severe hot flashes (CYP3A5 (*3) G/A genotype): 6/24 (25%)
% of patients who developed moderate or severe hot flashes (CYP3A5 (*3) G/G genotype): 37/175 (21%)
9 year RFS rate ([2]; Goetz index high risk): 46%
9 year RFS rate ([2]; Goetz index intermediate risk): 65%
9 year RFS rate ([2]; Goetz index low risk): 87%
5-year DFS ([2]; risk profile 1: 2-gene ratio <−1.339, CYP2D6 extensive): 94%
5-year DFS ([2]; risk profile 3: 2-gene ratio >−1.339, CYP2D6 extensive): 83%
5-year DFS ([2]; risk profile 4: 2-gene ratio >−1.339, CYP2D6 decreased): 57%
Kaplan-Meier estimate for the 5 year DFS [2, 3]: 74.3%
Kaplan-Meier estimate for the 5 year OS [2, 3]: 78.2%
Kaplan-Meier estimate for the 5 year RFS [2, 3]: 75.6%
